Results as given in US9695155B2, “Herbicidal substituted pyrimidinyloxy benzene compounds” (E. I. DU PONT DE NEMOURS AND COMPANY, priority 2013, dated 2017).

How the values were obtained:
Assay in all cases: Test C preemergence
blackgrass = type: in vivo, Alopecurus myosuroides; conditions: Alopecurus myosuroides, pre-emergence
Method in brief: (§1)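 Plants were kept under greenhouse conditions for 13–15 days following spray. Pre-emergent application went to soil (loam–sand), post-emergent to foliage at 1–4 leaves. Evaluation: visual, percent control against untreated checks.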

large (Lg) crabgrass = type: in vivo, Digitaria sanguinalis; conditions: Digitaria sanguinalis, pre-emergence
Method in brief: as §1

pigweed = type: in vivo, Amaranthus retroflexus; conditions: Amaranthus retroflexus, pre-emergence
Method in brief: as §1

waterhemp = type: in vivo, Amaranthus rudis; conditions: Amaranthus tuberculatus, pre-emergence
Method in brief: as §1

yellow nutsedge = type: in vivo, Cyperus esculentus; conditions: Cyperus, pre-emergence
Method in brief: as §1

oilseed rape = type: in vivo, Brassica napus; conditions: Brassica napus, pre-emergence
Method in brief: as §1

lambsquarters = type: in vivo, Chenopodium album; conditions: Chenopodium album, pre-emergence
Method in brief: as §1

barnyardgrass = type: in vivo, Echinochloa crus-galli; conditions: Echinochloa crus-galli, pre-emergence
Method in brief: as §1

wheat, winter = type: in vivo, Triticum aestivum; conditions: Triticum aestivum, pre-emergence
Method in brief: as §1

ragweed = type: in vivo, Ambrosia elatior; conditions: Ambrosia artemisiifolia, pre-emergence
Method in brief: as §1

velvetleaf = type: in vivo, Abutilon theophrasti; conditions: Abutilon theophrasti, pre-emergence
Method in brief: as §1

soybean = type: in vivo, Glycine max; conditions: Glycine max, pre-emergence
Method in brief: as §1

giant foxtail = type: in vivo, Setaria faberii; conditions: Setaria faberi, pre-emergence
Method in brief: as §1

## N#Cc1cccc(Oc2ncc(F)cn2)c1-n1cc(C(F)(F)F)cn1 [Compound 79, 3-[(5-fluoro-2-pyrimidinyl)oxy]-2-[4-(trifluoromethyl)-1H-pyrazol-1-yl]benzonitrile]
blackgrass; 62 g ai/ha, preemergence, scale 0 (no effect) to 100 (complete control), read-out: Blackgrass plant response rating
  pest or weed control at 62 g/ha: 90%
blackgrass; 125 g ai/ha, preemergence, scale 0 (no effect) to 100 (complete control), read-out: Blackgrass plant response rating
  pest or weed control at 125 g/ha: 90%
blackgrass; 250 g ai/ha, preemergence, scale 0 (no effect) to 100 (complete control), read-out: Blackgrass plant response rating
  pest or weed control at 250 g/ha: 90%
blackgrass; Preemergence, 31 g ai/ha, scale 0 to 100, 0 no effect, 100 complete control, read-out: Plant response rating, Blackgrass
  pest or weed control at 31 g/ha: 90%
Large (Lg) crabgrass; 62 g ai/ha, preemergence, scale 0 (no effect) to 100 (complete control), read-out: Crabgrass, Large plant response rating
  pest or weed control at 62 g/ha: 100%
Large (Lg) crabgrass; 125 g ai/ha, preemergence, scale 0 (no effect) to 100 (complete control), read-out: Crabgrass, Large plant response rating
  pest or weed control at 125 g/ha: 100%
Large (Lg) crabgrass; 250 g ai/ha, preemergence, scale 0 (no effect) to 100 (complete control), read-out: Crabgrass, Large plant response rating
  pest or weed control at 250 g/ha: 100%
Large (Lg) crabgrass; Preemergence, 31 g ai/ha, scale 0 to 100, 0 no effect, 100 complete control, read-out: Plant response rating, Crabgrass, Large
  pest or weed control at 31 g/ha: 100%
pigweed; 62 g ai/ha, preemergence, scale 0 (no effect) to 100 (complete control), read-out: Pigweed plant response rating
  pest or weed control at 62 g/ha: 100%
pigweed; 125 g ai/ha, preemergence, scale 0 (no effect) to 100 (complete control), read-out: Pigweed plant response rating
  pest or weed control at 125 g/ha: 100%
pigweed; 250 g ai/ha, preemergence, scale 0 (no effect) to 100 (complete control), read-out: Pigweed plant response rating
  pest or weed control at 250 g/ha: 100%
pigweed; Preemergence, 31 g ai/ha, scale 0 to 100, 0 no effect, 100 complete control, read-out: Plant response rating, Pigweed
  pest or weed control at 31 g/ha: 100%
waterhemp; 62 g ai/ha, preemergence, scale 0 (no effect) to 100 (complete control), read-out: Waterhemp plant response rating
  pest or weed control at 62 g/ha: 100%
waterhemp; 125 g ai/ha, preemergence, scale 0 (no effect) to 100 (complete control), read-out: Waterhemp plant response rating
  pest or weed control at 125 g/ha: 100%
waterhemp; 250 g ai/ha, preemergence, scale 0 (no effect) to 100 (complete control), read-out: Waterhemp plant response rating
  pest or weed control at 250 g/ha: 100%
waterhemp; Preemergence, 31 g ai/ha, scale 0 to 100, 0 no effect, 100 complete control, read-out: Plant response rating, Waterhemp
  pest or weed control at 31 g/ha: 100%
Yellow nutsedge; 62 g ai/ha, preemergence, scale 0 (no effect) to 100 (complete control), read-out: Nutsedge, Yellow plant response rating
  pest or weed control at 62 g/ha: 15%
Yellow nutsedge; 125 g ai/ha, preemergence, scale 0 (no effect) to 100 (complete control), read-out: Nutsedge, Yellow plant response rating
  pest or weed control at 125 g/ha: 65%
Yellow nutsedge; 250 g ai/ha, preemergence, scale 0 (no effect) to 100 (complete control), read-out: Nutsedge, Yellow plant response rating
  pest or weed control at 250 g/ha: 75%
Yellow nutsedge; Preemergence, 31 g ai/ha, scale 0 to 100, 0 no effect, 100 complete control, read-out: Plant response rating, Nutsedge, Yellow
  pest or weed control at 31 g/ha: 10%
Oilseed rape; 62 g ai/ha, preemergence, scale 0 (no effect) to 100 (complete control), read-out: Oilseed Rape plant response rating
  plant injury at 62 g/ha: 95%
Oilseed rape; 125 g ai/ha, preemergence, scale 0 (no effect) to 100 (complete control), read-out: Oilseed Rape plant response rating
  plant injury at 125 g/ha: 95%
Oilseed rape; 250 g ai/ha, preemergence, scale 0 (no effect) to 100 (complete control), read-out: Oilseed Rape plant response rating
  plant injury at 250 g/ha: 95%
Oilseed rape; Preemergence, 31 g ai/ha, scale 0 to 100, 0 no effect, 100 complete control, read-out: Plant response rating, Oilseed Rape
  plant injury at 31 g/ha: 90%
lambsquarters; 62 g ai/ha, preemergence, scale 0 (no effect) to 100 (complete control), read-out: Lambsquarters plant response rating
  pest or weed control at 62 g/ha: 100%
lambsquarters; 125 g ai/ha, preemergence, scale 0 (no effect) to 100 (complete control), read-out: Lambsquarters plant response rating
  pest or weed control at 125 g/ha: 100%
lambsquarters; 250 g ai/ha, preemergence, scale 0 (no effect) to 100 (complete control), read-out: Lambsquarters plant response rating
  pest or weed control at 250 g/ha: 100%
lambsquarters; Preemergence, 31 g ai/ha, scale 0 to 100, 0 no effect, 100 complete control, read-out: Plant response rating, Lambsquarters
  pest or weed control at 31 g/ha: 100%
barnyardgrass; 62 g ai/ha, preemergence, scale 0 (no effect) to 100 (complete control), read-out: Barnyardgrass plant response rating
  pest or weed control at 62 g/ha: 100%
barnyardgrass; 125 g ai/ha, preemergence, scale 0 (no effect) to 100 (complete control), read-out: Barnyardgrass plant response rating
  pest or weed control at 125 g/ha: 100%
barnyardgrass; 250 g ai/ha, preemergence, scale 0 (no effect) to 100 (complete control), read-out: Barnyardgrass plant response rating
  pest or weed control at 250 g/ha: 100%
barnyardgrass; Preemergence, 31 g ai/ha, scale 0 to 100, 0 no effect, 100 complete control, read-out: Plant response rating, Barnyardgrass
  pest or weed control at 31 g/ha: 100%
wheat, winter; 62 g ai/ha, preemergence, scale 0 (no effect) to 100 (complete control), read-out: Wheat plant response rating
  plant injury at 62 g/ha: 35%
wheat, winter; 125 g ai/ha, preemergence, scale 0 (no effect) to 100 (complete control), read-out: Wheat plant response rating
  plant injury at 125 g/ha: 85%
wheat, winter; 250 g ai/ha, preemergence, scale 0 (no effect) to 100 (complete control), read-out: Wheat plant response rating
  plant injury at 250 g/ha: 90%
wheat, winter; Preemergence, 31 g ai/ha, scale 0 to 100, 0 no effect, 100 complete control, read-out: Plant response rating, Wheat
  plant injury at 31 g/ha: 10%
ragweed; 62 g ai/ha, preemergence, scale 0 (no effect) to 100 (complete control), read-out: Ragweed plant response rating
  pest or weed control at 62 g/ha: 90%
ragweed; 125 g ai/ha, preemergence, scale 0 (no effect) to 100 (complete control), read-out: Ragweed plant response rating
  pest or weed control at 125 g/ha: 90%
ragweed; 250 g ai/ha, preemergence, scale 0 (no effect) to 100 (complete control), read-out: Ragweed plant response rating
  pest or weed control at 250 g/ha: 90%
ragweed; Preemergence, 31 g ai/ha, scale 0 to 100, 0 no effect, 100 complete control, read-out: Plant response rating, Ragweed
  pest or weed control at 31 g/ha: 90%
velvetleaf; 62 g ai/ha, preemergence, scale 0 (no effect) to 100 (complete control), read-out: Velvetleaf plant response rating
  pest or weed control at 62 g/ha: 100%
velvetleaf; 125 g ai/ha, preemergence, scale 0 (no effect) to 100 (complete control), read-out: Velvetleaf plant response rating
  pest or weed control at 125 g/ha: 100%
velvetleaf; 250 g ai/ha, preemergence, scale 0 (no effect) to 100 (complete control), read-out: Velvetleaf plant response rating
  pest or weed control at 250 g/ha: 100%
velvetleaf; Preemergence, 31 g ai/ha, scale 0 to 100, 0 no effect, 100 complete control, read-out: Plant response rating, Velvetleaf
  pest or weed control at 31 g/ha: 90%
soybean; 62 g ai/ha, preemergence, scale 0 (no effect) to 100 (complete control), read-out: Soybean plant response rating
  plant injury at 62 g/ha: 75%
soybean; 125 g ai/ha, preemergence, scale 0 (no effect) to 100 (complete control), read-out: Soybean plant response rating
  plant injury at 125 g/ha: 90%
soybean; 250 g ai/ha, preemergence, scale 0 (no effect) to 100 (complete control), read-out: Soybean plant response rating
  plant injury at 250 g/ha: 95%
soybean; Preemergence, 31 g ai/ha, scale 0 to 100, 0 no effect, 100 complete control, read-out: Plant response rating, Soybean
  plant injury at 31 g/ha: 75%
Giant foxtail; 62 g ai/ha, preemergence, scale 0 (no effect) to 100 (complete control), read-out: Foxtail, Giant plant response rating
  pest or weed control at 62 g/ha: 100%
Giant foxtail; 125 g ai/ha, preemergence, scale 0 (no effect) to 100 (complete control), read-out: Foxtail, Giant plant response rating
  pest or weed control at 125 g/ha: 100%
Giant foxtail; 250 g ai/ha, preemergence, scale 0 (no effect) to 100 (complete control), read-out: Foxtail, Giant plant response rating
  pest or weed control at 250 g/ha: 100%
Giant foxtail; Preemergence, 31 g ai/ha, scale 0 to 100, 0 no effect, 100 complete control, read-out: Plant response rating, Foxtail, Giant
  pest or weed control at 31 g/ha: 98%
